Measurements taken from US10681909B2, “Herbicidal triazoles” (FMC Corporation, priority 2014, dated 2020).

Experiments:
kochia = assay: Test A preemergence; assay type: in vivo, Kochia scoparia; conditions: 0 to 100 scale (0 no effect, 100 complete control)
Summary of the method: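 Seeds sown in loam soil–sand blend received a directed preemergence soil spray of test chemical in non-phytotoxic solvent with surfactant; postemergence plants, 2 to 10 cm at one- to two-leaf stage, were sprayed with the same formulation. Injury visually rated versus untreated controls after ~10 d in greenhouse, 0–100 scale.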

crabgrass, large = assay: Test C preemergence; assay type: in vivo, Digitaria sanguinalis; conditions: for Plant response rating (scale of 0 to 100 where 0 is no effect and 100 is complete control): Crabgrass, Large, preemergence; for Crabgrass, Large plant response rating (0 to 100): Preemergence, visual rating after 13 to 15 d
Text: (§1) Seeds of plant species selected from blackgrass (Alopecurus myosuroides), ryegrass, Italian (Italian ryegrass, Lolium multiflorum), wheat (winter wheat, Triticum aestivum), galium (catchweed bedstraw, Galium aparine), corn (Zea mays), crabgrass, large (large crabgrass, Digitaria sanguinalis), foxtail, giant, (giant foxtail, Setaria faberii), johnsongrass (Sorghum halepense), lambsquarters (Chenopodium album), morningglory (Ipomoea coccinea), nutsedge, yellow (yellow nutsedge, Cyperus esculentus), pigweed (Amaranthus retroflexus), ragweed (common ragweed, Ambrosia elatior), soybean (Glycine max), barnyardgrass (Echinochloa crus-galli), oilseed rape (Brassica napus), waterhemp (common waterhemp, Amaranthus rudis), and velvetleaf (Abutilon theophrasti) were planted into a blend of loam soil and sand and treated preemergence with test chemicals formulated in a non-phytotoxic solvent mixture which included a surfactant. At the same time, plants selected from these crop and weed species and also chickweed (common chickweed, Stellaria media), oat, wild (wild oat, Avena fatua), and kochia (Kochia scoparia), were planted in pots containing Sunshine Redi-Earth® planting medium comprising spaghnum peat moss, vermiculite, starter nutrients and dolomitic limestone and treated with postemergence applications of test chemicals formulated in the same manner. Plants ranged in height from 2 to 18 cm (1- to 4-leaf stage) for postemergence treatments. […] A dash (-) response means no test result.

soybean = assay: Test C preemergence; assay type: in vivo, Glycine max; conditions: for Soybean plant response rating (0 to 100): Preemergence, visual rating after 13 to 15 d; for Plant response rating (scale of 0 to 100 where 0 is no effect and 100 is complete control): Soybean, preemergence, 250 g ai/ha
Text: as §1

buckwheat, wild = assay: Test D preemergence; assay type: in vivo, Polygonum convolvulus; conditions: for Plant response rating (0 to 100), Buckwheat, Wild: 16 g ai/ha, 0 is no effect, 100 is complete control; for Plant response rating: Buckwheat, Wild: scale 0 to 100
Text: (§2) Seeds of plant species selected from bluegrass (annual bluegrass, Poa annua), blackgrass (Alopecurus myosuroides), canarygrass (Phalaris minor), chickweed (common chickweed, Stellaria media), galium (catchweed bedstraw, Galium aparine), bromegrass, down (downy bromegrass, Bromus tectorum), Russian thistle (Salsola kali), field poppy (Papaver rhoeas), field violet (Viola arvensis), foxtail, green (green foxtail, Setaria viridis), deadnettle (henbit deadnettle, Lamium amplexicaule), ryegrass, Ital. (Italian ryegrass, Lolium multiflorum), kochia (Kochia scoparia), lambsquarters (Chenopodium album), oilseed rape (Brassica napus), pigweed (Amaranthus retroflexus), chamomile (scentless chamomile, Matricaria inodora), speedwell (bird's-eye speedwell, Veronica persica), barley, spring (spring barley, Hordeum vulgare), wheat, spring (spring wheat, Triticum aestivum), buckwheat, wild (wild buckwheat, Polygonum convolvulus), wild mustard (Sinapis arvensis), oat, wild (wild oat, Avena fatua), radish, wild (wild radish, Raphanus raphanistrum), […]), barley, winter (winter barley, Hordeum vulgare), and wheat, winter (winter wheat, Triticum aestivum) were planted into a silt loam soil and treated preemergence with test chemicals formulated in a non-phytotoxic solvent mixture which included a surfactant. At the same time, these species were planted in pots containing Sunshine Redi-Earth® planting medium comprising spaghnum peat moss, vermiculite, starter nutrients and dolomitic limestone and treated with postemergence applications of the test chemicals formulated in the same manner. Plants ranged in height from 2 to 18 cm (1- to 4-leaf stage). Treated plants and controls were maintained in a controlled growth environment for 14 to 21 d after which time all species were compared to controls and visually evaluated. […] A dash (-) response means no test result.

radish, wild = assay: Test D preemergence; assay type: in vivo, Raphanus raphanistrum; conditions: for Plant response rating (0 to 100), Radish, Wild: 16 g ai/ha, 0 is no effect, 100 is complete control; for Plant response rating: Radish, Wild: scale 0 to 100
Text: as §2

field poppy = assay: Test D postemergence; assay type: in vivo, Papaver rhoeas; conditions: scale 0 to 100
Text: as §2

field violet = assay: Test D postemergence; assay type: in vivo, Viola arvensis; conditions: scale 0 to 100
Text: as §2

Row | Compound | Plant response rating, Kochia (kochia; 125 g ai/ha) | Plant response rating (scale of 0 to 100 where 0 is no effect and 100 is complete control) (crabgrass, large; 125 g ai/ha) | Plant response rating (scale of 0 to 100 where 0 is no effect and 100 is complete control) (crabgrass, large; 250 g ai/ha) | Crabgrass, Large plant response rating (0 to 100) (crabgrass, large; 31 g ai/ha) | Crabgrass, Large plant response rating (0 to 100) (crabgrass, large; 62 g ai/ha) | Soybean plant response rating (0 to 100) (soybean; 31 g ai/ha) | Soybean plant response rating (0 to 100) (soybean; 62 g ai/ha) | Plant response rating (scale of 0 to 100 where 0 is no effect and 100 is complete control) (soybean) | Plant response rating (0 to 100), Buckwheat, Wild (buckwheat, wild) | Plant response rating: Buckwheat, Wild (buckwheat, wild; 31 g ai/ha) | Plant response rating: Buckwheat, Wild (buckwheat, wild; 62 g ai/ha) | Plant response rating: Buckwheat, Wild (buckwheat, wild; 125 g ai/ha) | Plant response rating (0 to 100), Radish, Wild (radish, wild) | Plant response rating: Radish, Wild (radish, wild; 62 g ai/ha) | Plant response rating: Radish, Wild (radish, wild; 125 g ai/ha) | Plant response rating: Field Poppy (field poppy; 16 g ai/ha) | Plant response rating: Field Poppy (field poppy; 31 g ai/ha) | Plant response rating: Field Poppy (field poppy; 62 g ai/ha) | Plant response rating: Field Poppy (field poppy; 125 g ai/ha) | Plant response rating: Field Violet (field violet; 16 g ai/ha) | other results
1 | CCOc1nc(-c2ccc(C(F)(F)F)cc2)nn1Cc1ccnc(C(F)(F)F)c1 [Compound 35, 4-[[5-ethoxy-3-[4-(trifluoromethyl)phenyl]-1H-1,2,4-triazole-1-yl]methyl]-2-(trifluoromethyl)pyridine] | 90 | 100 | 100 | 100 | 100 | 20 | 15 | 65 | 65 | 70 | 70 | 95 | 65 | 85 | 100 | 80 | 95 | 95 | 100 | 90 | Plant response rating, Kochia (kochia; 31 g ai/ha): 90; Plant response rating: Field Violet (field violet; 31 g ai/ha): 100; Plant response rating: Field Violet (field violet; 62 g ai/ha): 100; Plant response rating: Field Violet (field violet; 125 g ai/ha): 100
2 | Fc1ccc(-c2nc(OCC(F)(F)F)n(Cc3ccnc(C(F)(F)F)c3)n2)cc1 [Compound 30] | 100 | 100 | 100 | 98 | 100 | 10 | 5 | 40 | 70 | 70 | 85 | 85 | 65 | 95 | 100 | 70 | 90 | 98 | 100 | 75 | Plant response rating, Kochia (kochia; 500 g ai/ha, approx. 10 d): 100; Plant response rating: Field Violet (field violet; 31 g ai/ha): 98; Plant response rating: Field Violet (field violet; 62 g ai/ha): 95; Plant response rating: Field Violet (field violet; 125 g ai/ha): 100
